Earlier results in patent US4847261A, “Alkoxy cycloalkanol esters of dihydrolysergic acid having peripheral serotonin antagonists properties” (Eli Lilly and Company, priority 1988, dated 1989).

How the values were obtained:
5HT2 receptors [1] = conditions: in words; mediated by 5HT2 receptors; cited from earlier work
5HT2 receptors [2] = conditions: in words; cited from earlier work

CC(O)C(C)OC(=O)[C@@H]1C[C@@H]2c3cccc4c3c(cn4C(C)C)C[C@H]2N(C)C1 (stereo partly drawn) [LY53857, 1-isopropyl-6-methyl-8β-(1-methyl-2-hydroxy)propoxycarbonyl-5R-ergoline]
antagonism of vascular contraction to serotonin (5HT2 receptors [1]): potent antagonist | peripheral serotonin antagonist activity among Garbrecht compounds (5HT2 receptors [2]): most active peripheral serotonin antagonist
